Test results published in PubChem BioAssay (NCI).
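Growth conditions: 96-well plates. Treatment: test compound, 48 hours, 5 concentrations. Analysis: linear interpolation between bracketing concentrations; unreached endpoints set to highest concentration. Abbreviation: GI50, concentration required for 50% inhibition of growth. Definition used: TGI = concentration required for complete inhibition of growth.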

Key:
Assay in all cases: NCI anticancer screen, dose series, 48 h
[1] = tested on: COLO 205 colon
[2] = tested on: HOP-62 NSCLC
[3] = tested on: HOP-92 NSCLC
[4] = tested on: MALME-3M melanoma
[5] = tested on: MOLT-4 leukemia
[6] = tested on: NCI-H460 lung
[7] = tested on: OVCAR-3 ovarian
[8] = tested on: TK-10 renal
[9] = tested on: HS 578T breast
[10] = tested on: MCF7 breast

Compound | TGI [1] | TGI [2] | TGI [3] | TGI [4] | TGI [5] | TGI [6] | TGI [7] | TGI [8] | GI50 [2] | GI50 [3] | GI50 [9] | TGI [9] | GI50 [5] | GI50 [6] | GI50 [7] | GI50 [8] | GI50 [1] | GI50 [10] | TGI [10] | GI50 [4]
O=C(CO)CC(=O)C(=O)Nc1cccc(C(F)(F)F)c1 | > 100 µM | > 100 µM | > 100 µM | > 100 µM | > 100 µM | > 100 µM | > 100 µM | > 100 µM |  |  |  |  |  |  |  |  |  |  |  | 
CC1(C)C2=CCCC(=O)[C@@]2(C)CC[C@@H]1O | > 100 µM | > 100 µM | > 100 µM |  | > 100 µM | > 100 µM | > 100 µM | > 100 µM |  |  |  |  |  |  |  |  |  |  |  | 
CCCCCCCCCCCCCP(=O)(OC)OC | 34.2 µM | 28.2 µM | 35 µM | 38.3 µM | 36.5 µM | 31.3 µM | 34.6 µM | 31.6 µM |  |  |  |  |  |  |  |  |  |  |  | 
O=C(O)CC(S)C(=O)O.[Li+].[Sb] (stereo not given) |  | > 100 µM | > 100 µM |  | > 100 µM | > 100 µM | > 100 µM | > 100 µM | 44.2 µM | > 100 µM | > 100 µM | > 100 µM | 64.8 µM | 89.5 µM | > 100 µM | > 100 µM |  |  |  | 
c1ccc(N2CCN(CCCN3CCc4c([nH]c5ccccc45)C3c3cccnc3)CC2)cc1 (stereo not given) | 56.2 µM | > 100 µM | > 100 µM | > 77.3 µM | > 100 µM | > 100 µM | > 100 µM | > 100 µM |  |  |  |  |  |  |  |  |  |  |  | 
CC1OC(OC2C(O)C(OCCc3ccc(O)c(O)c3)OC(CO)C2OC(=O)/C=C/c2ccc(O)c(O)c2)C(O)C(O)C1O (stereo not given) | > 100 µM | > 100 µM | > 100 µM |  |  | > 100 µM | 79.7 µM | > 100 µM | > 100 µM | > 100 µM | > 100 µM | > 100 µM |  | > 100 µM | 27.4 µM | > 100 µM | > 100 µM | 32.9 µM | > 100 µM | 
CN(CCc1ccccn1)/[N+]([O-])=N/O (tested in a mixture with another compound) | > 100 µM | > 100 µM | > 100 µM | > 100 µM | > 100 µM | > 100 µM | > 100 µM |  |  |  |  |  |  |  |  |  |  |  |  | 
CCCc1nn(C)c(CCC(=O)N(Cc2ccccc2)Cc2ccccc2)c1CC | > 100 µM | > 100 µM | > 100 µM | > 100 µM |  | > 100 µM | > 100 µM | > 100 µM |  |  |  |  |  |  |  |  |  |  |  | 
CCN(CC)CCCNc1nccc2c(C)c3[nH]c4ccncc4c(=O)c3cc12 | 12.5 µM | 16.7 µM | 7.64 µM | 14.8 µM | 2.51 µM | 7.04 µM | 8.88 µM | 22.5 µM |  |  |  |  |  |  |  |  |  |  |  | 
CCCCCCCCC1C(C)c2c([nH]c3ccccc23)C2C(=O)N(c3ccccc3)C(=O)C21 (stereo not given) |  | 38.3 µM |  | 39.1 µM | 7.18 µM | 12.9 µM | 16.7 µM | 37.1 µM |  |  |  |  |  |  |  |  |  |  |  | 
CSC(=NC(=O)c1ccccc1)SCCSC(=NC(=O)c1ccccc1)SC | > 100 µM | > 100 µM | 83.4 µM | > 100 µM | > 100 µM | > 100 µM | > 100 µM | > 100 µM |  |  |  |  |  |  |  |  |  |  |  | 
C#Cc1cccc(Nc2ncnc3ccc(-c4cnc(N)nc4)cc23)c1 | 13.8 µM | 12.4 µM | 3.15 µM | 12.7 µM |  | 14 µM | 10.5 µM | 3.2 µM | 1.98 µM | 0.211 µM | 1.23 µM | 4.06 µM |  | 2.95 µM | 1.93 µM | 0.286 µM | 2.99 µM | 1.8 µM | 12.2 µM | 1.73 µM
CC(=O)OC(C)(C)C[N+](=O)[O-] | > 100 µM | > 100 µM | > 100 µM | > 100 µM | > 100 µM | > 100 µM | > 100 µM | > 100 µM |  |  |  |  |  |  |  |  |  |  |  | 
CC1(C)C=C(N2CCN(C3=CC(C)(C)NC(C)(C)C3)CC2)CC(C)(C)N1 |  | > 100 µM | > 100 µM |  | > 100 µM | > 100 µM | > 100 µM | > 100 µM |  |  |  |  |  |  |  |  |  |  |  | 
CCCCCCCCCCCCCC(=O)NO | 20.1 µM | 34.6 µM | 43.6 µM | 83.8 µM | > 49 µM | 38.3 µM | 28 µM | 59.4 µM |  |  |  |  |  |  |  |  |  |  | > 100 µM | 
CC(/C=C1\CCC(CN(C)C)C1=O)c1cccc(Br)c1 (stereo not given) | 37.4 µM | 42.2 µM | 33.5 µM | 32.4 µM | 13.3 µM | > 70.2 µM | 30.8 µM | 30.6 µM |  |  |  |  |  |  |  |  |  |  |  | 
COC1/C=C/OC2(C)Oc3c(C)c(O)c4c(O)c(c(/C=N/N(c5ccccc5)c5ccccc5)c(O)c4c3C2=O)NC(=O)C(C)=C/C=C/C(C)C(O)C(C)C(O)C(C)C(OC(C)=O)C1C (stereo not given) | 6.23 µM | 10.3 µM | 2.86 µM | 9.36 µM |  | 5.32 µM | 1.7 µM | 7.55 µM | 3.41 µM | 0.867 µM | 1.19 µM | 4.33 µM |  | 1.52 µM | 0.852 µM | 1.8 µM | 1.73 µM | 1.62 µM | 6.58 µM | 1.83 µM
Cc1ccc(-c2nc3ccccc3c(=O)n2NC2OC(CO)C(O)C(O)C2O)cc1 (stereo not given) | > 100 µM | > 100 µM | > 100 µM | > 100 µM | > 100 µM | > 100 µM | > 100 µM | > 100 µM |  |  |  |  |  |  |  |  |  |  |  | 
CC(=O)CCn1[nH]c(=O)c(Cl)c(Cl)c1=O |  | > 100 µM | > 100 µM | > 100 µM | > 100 µM | > 100 µM | > 100 µM | > 100 µM |  |  |  |  |  |  |  |  |  |  |  | 
O=C(CC1(O)C(=O)Nc2c(Cl)cc(Cl)cc21)c1ccc([N+](=O)[O-])cc1 (stereo not given) | > 92.7 µM | > 100 µM | 75.5 µM | > 60.7 µM | > 100 µM | > 100 µM | > 64.1 µM | > 100 µM |  |  |  |  |  |  |  |  |  |  |  | 
Cl.[O-]c1cccc2cccnc12.[O-]c1cccc2cccnc12.[O-]c1cccc2cccnc12.[O-]c1cccc2cccnc12.[Ti+4] | 3.55 µM | 59.6 µM | > 71.7 µM | > 40.2 µM |  | 10.2 µM | 0.621 µM | > 100 µM | 4.7 µM | 15.7 µM | > 100 µM | > 100 µM |  | 1.28 µM | 0.121 µM | 53.7 µM | 1.08 µM | 0.955 µM | > 100 µM | 1.91 µM
